The text below walks through data of ChEMBL document CHEMBL4251711, “Bioactive Indolocarbazoles from the Marine-Derived Streptomyces sp. DT-A61” (J Nat Prod, 2018).

Test [1] has as its target Rho-associated protein kinase 2 (Homo sapiens, UniProt O75116). Description: Inhibition of ROCK2 (unknown origin) by HTRF assay.
Test [2] has as its target Protein kinase C alpha type (Homo sapiens, UniProt P17252). Description: Inhibition of PKCalpha (unknown origin) by HTRF assay.
Test [3] deals with T1, Mitogen-activated protein kinase kinase kinase 5 (Homo sapiens, UniProt Q99683).
T1 sequence (Q99683 whole entry): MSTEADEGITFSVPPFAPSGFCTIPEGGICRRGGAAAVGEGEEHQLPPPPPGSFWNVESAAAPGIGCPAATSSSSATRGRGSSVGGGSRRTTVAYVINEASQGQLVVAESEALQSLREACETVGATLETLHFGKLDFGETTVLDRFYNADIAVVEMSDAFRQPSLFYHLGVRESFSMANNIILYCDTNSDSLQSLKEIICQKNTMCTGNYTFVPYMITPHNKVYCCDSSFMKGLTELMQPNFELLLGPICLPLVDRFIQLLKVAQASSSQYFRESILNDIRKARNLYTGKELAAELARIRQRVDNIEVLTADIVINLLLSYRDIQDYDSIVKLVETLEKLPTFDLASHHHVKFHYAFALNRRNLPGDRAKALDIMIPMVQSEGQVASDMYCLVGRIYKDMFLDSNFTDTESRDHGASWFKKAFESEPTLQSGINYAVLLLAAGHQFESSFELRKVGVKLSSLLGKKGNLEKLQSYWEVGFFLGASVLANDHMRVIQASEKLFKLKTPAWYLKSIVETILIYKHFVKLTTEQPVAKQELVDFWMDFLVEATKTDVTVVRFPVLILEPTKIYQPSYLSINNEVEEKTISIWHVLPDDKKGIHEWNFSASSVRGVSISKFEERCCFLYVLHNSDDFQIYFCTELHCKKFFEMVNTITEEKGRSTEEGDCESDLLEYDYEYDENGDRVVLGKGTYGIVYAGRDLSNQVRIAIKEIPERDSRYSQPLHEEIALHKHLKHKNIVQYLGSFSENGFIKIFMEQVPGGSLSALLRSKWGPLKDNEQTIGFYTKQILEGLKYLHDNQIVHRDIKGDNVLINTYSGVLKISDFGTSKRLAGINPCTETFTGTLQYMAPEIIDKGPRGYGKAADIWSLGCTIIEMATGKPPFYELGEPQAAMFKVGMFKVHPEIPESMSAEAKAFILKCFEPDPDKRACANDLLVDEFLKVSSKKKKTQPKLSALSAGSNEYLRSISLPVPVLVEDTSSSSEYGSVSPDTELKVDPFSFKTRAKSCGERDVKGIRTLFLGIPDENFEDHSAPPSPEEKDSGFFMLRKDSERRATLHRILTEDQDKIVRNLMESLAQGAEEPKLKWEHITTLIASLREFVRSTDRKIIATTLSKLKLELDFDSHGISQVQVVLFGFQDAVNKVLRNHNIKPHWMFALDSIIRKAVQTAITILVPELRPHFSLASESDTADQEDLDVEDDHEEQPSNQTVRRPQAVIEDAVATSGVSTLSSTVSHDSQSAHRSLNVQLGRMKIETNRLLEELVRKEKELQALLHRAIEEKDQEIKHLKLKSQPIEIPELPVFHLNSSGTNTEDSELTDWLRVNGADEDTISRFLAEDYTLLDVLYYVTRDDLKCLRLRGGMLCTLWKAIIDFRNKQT
The experiment in a line: Inhibition of ASK1 (unknown origin) by HTRF assay.

Another test relates to PC-3. The experiment in a line: Cytotoxicity against human PC3 cells after 72 hrs by SRB assay. Type of test: functional, cell-based. Conditions: PC-3, 72 h.

Chain of Rho-associated protein kinase 2 (O75116 whole entry): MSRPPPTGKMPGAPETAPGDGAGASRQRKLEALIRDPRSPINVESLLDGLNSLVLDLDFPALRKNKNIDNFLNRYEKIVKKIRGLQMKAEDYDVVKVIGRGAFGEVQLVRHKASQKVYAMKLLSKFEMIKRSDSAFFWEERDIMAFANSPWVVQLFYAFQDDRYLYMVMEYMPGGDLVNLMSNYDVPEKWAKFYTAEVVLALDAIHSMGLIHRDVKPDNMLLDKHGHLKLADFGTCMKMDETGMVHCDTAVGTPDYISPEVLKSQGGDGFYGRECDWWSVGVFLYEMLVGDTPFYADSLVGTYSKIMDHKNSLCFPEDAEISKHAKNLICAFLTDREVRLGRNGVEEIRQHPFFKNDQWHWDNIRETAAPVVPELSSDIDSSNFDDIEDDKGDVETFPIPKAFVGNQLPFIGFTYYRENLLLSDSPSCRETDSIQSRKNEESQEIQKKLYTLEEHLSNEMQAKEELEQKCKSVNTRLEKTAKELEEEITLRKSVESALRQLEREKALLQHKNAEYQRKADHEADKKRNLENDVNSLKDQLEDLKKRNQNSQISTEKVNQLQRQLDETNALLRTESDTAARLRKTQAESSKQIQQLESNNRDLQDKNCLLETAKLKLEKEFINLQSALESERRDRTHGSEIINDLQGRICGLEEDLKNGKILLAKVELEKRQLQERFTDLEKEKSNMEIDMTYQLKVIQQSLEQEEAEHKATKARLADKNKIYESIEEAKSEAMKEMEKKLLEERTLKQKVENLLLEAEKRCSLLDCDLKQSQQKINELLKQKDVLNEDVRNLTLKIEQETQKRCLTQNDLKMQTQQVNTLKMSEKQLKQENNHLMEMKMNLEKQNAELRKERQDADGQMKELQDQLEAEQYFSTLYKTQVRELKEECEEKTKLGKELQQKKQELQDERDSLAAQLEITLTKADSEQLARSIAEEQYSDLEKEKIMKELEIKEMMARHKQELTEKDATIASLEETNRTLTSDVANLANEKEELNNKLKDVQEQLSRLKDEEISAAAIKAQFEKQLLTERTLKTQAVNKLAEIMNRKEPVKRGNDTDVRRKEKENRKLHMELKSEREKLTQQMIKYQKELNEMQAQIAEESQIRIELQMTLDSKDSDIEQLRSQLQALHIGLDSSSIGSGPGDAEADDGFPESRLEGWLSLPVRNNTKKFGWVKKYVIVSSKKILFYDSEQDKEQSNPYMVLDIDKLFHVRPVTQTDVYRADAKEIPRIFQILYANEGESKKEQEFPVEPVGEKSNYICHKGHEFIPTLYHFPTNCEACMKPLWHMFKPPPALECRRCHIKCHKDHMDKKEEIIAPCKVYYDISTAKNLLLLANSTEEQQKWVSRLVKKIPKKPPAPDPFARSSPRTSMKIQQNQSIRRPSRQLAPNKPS

Turning to `CC(=O)N[C@@H]1C[C@H](n2c3ccccc3c3c4c(c5c6cc(O)ccc6[nH]c5c32)CNC4=O)O[C@@H](C)[C@@H]1O`, the IC50 in test [1] is 1400 nM; in test [2], 97 nM; in test [3] it was over 50000 nM.

With `C[C@H]1O[C@@H]2C[C@](O)([C@H]1O)n1c3ccccc3c3c4c(c5c6cc(O)ccc6n2c5c31)C(=O)NC4`, the 50% inhibitory concentration (IC50) was 5600 nM with PC-3, 340 nM in test [1], 1400 nM in test [2] and over 50000 nM in test [3].

With `C[C@@H]1O[C@@H](n2c3ccc(O)cc3c3c4c(c5c6ccccc6[nH]c5c32)CNC4=O)C[C@@H](N)[C@H]1O`, the IC50 in the test on PC-3 turned out to be 3100 nM; in test [1], 150 nM; in test [2], 79 nM; in test [3] it was 1100 nM.

Take `C[C@@H]1O[C@@H]2C[C@](O)([C@H]1O)n1c3ccccc3c3c4c(c5c6cc(O)ccc6n2c5c31)C(=O)NC4`: the IC50 in the test on PC-3 amounted to 39000 nM; in test [1], 970 nM; in test [2] it was 2100 nM; in test [3], 4100 nM.

With `COC1NC(=O)c2c1c1c3ccccc3[nH]c1c1[nH]c3ccc(O)cc3c21` (stereo not given), the IC50 in the test on PC-3 is 18000 nM; in test [1], 910 nM; in test [2], 1400 nM; in test [3], over 50000 nM.

Turning to `O=C1NCc2c1c1c3cc(O)ccc3[nH]c1c1[nH]c3ccccc3c21`, the 50% inhibitory concentration (IC50) amounted to 21000 nM in the test with PC-3, 5.7 nM in test [1], 3200 nM in test [2] and 3000 nM in test [3].

For the compound `O=C1NCc2c1c1c3ccccc3[nH]c1c1[nH]c3ccc(O)cc3c21`, the concentration for half-maximal inhibition (IC50) with PC-3 was 8000 nM; in test [1], 340 nM; in test [2], 980 nM; in test [3], 740 nM.

Regarding `CC(=O)N[C@@H]1C[C@H](n2c3ccc(O)cc3c3c4c(c5c6ccccc6[nH]c5c32)CNC4=O)O[C@@H](C)[C@@H]1O`, the 50% inhibitory concentration (IC50) is 3600 nM in the test on PC-3, 40 nM in test [1], 460 nM in test [2] and 6400 nM in test [3].

In the case of `CC(=O)N[C@H]1C[C@H]2O[C@@](C)([C@@H]1O)n1c3ccccc3c3c4c(c5c6ccccc6n2c5c31)C(=O)NC4`, the 50% inhibitory concentration (IC50) in the test with PC-3 is 160 nM; in test [1] it was 260 nM; in test [2], 92 nM; in test [3], 770 nM.
